Assay results published in patent publication US5254801A, “Heterologous dominant conditional lethal gene which is a phosphonate monoester hydrolase and use thereof in plants” (Monsanto Company, priority 1990, dated 1993).

How the values were obtained:
[1] = tested on: E. coli MM294, JM101, JM101/MPU+, SR200/MPU; assay: Growth on glyceryl glyphosate as sole phosphate source; type: cell-based; conditions: E. coli strains; 0.2 mM in DF minimal medium
Procedure: (§1) Bacteria capable of degrading glyphosate are known (Hallas et al., 1988; Malik et al., 1989; and Moore et al., 1983; Heitkamp et al., 1990). Five of these bacteria (PG2482, LBAA, T10, T12 and CP4) and four strains of E. coli were screened for the rapid degradation of glyceryl glyphosate into inorganic phosphate. The bacteria were inoculated into 2 ml Dworkin-Foster(DF) minimal medium containing glucose, sodium gluconate and potassium citrate (each 0.1%) as carbon source and containing 0.2 mM glyceryl glyphosate as a phosphate source. The Dworkin-Foster minimal medium was made by combining 1 liter sterile H2 O with 1 ml each of A, B, C, E and F, 10 ml D, C-sources to final concentration of 0.1% each and P-source to 0.2 mM.
(§2) Bacteria which grew in this medium using glyceryl glyphosate as a sole phosphate source had the ability to cleave both the ester and the phosphonate bond to release the free phosphate. For these bacteria to be useful in the present invention, the first step in the mineralization of glyceryl glyphosate needed is the hydrolysis of the phosphonate ester. Each of the three bacteria which utilized glyceryl glyphosate as a phosphate source were then assayed for a phosphonate monoester hydrolase activity using an in vivo (3-^14 C-) glyceryl glyphosate assay. A 150 ml culture of each bacteria was grown in DF minimal medium with 0.2 mM HK2 PO4 as a phosphate source in a 500 ml flask, 30° C., with shaking. The bacteria were pelleted by centrifugation at 5,000×g for 10 min and resuspended at 10 mg fresh weight/ml. An assay mix included 50 μl cells plus 10 μl (3-^14 C-) glyceryl glyphosate (10,000 cpm/μl) and kept at 30° C. with shaking. After a three hour incubation period, the cells were pelleted in a microfuge and the supernatant injected onto an HPLC anion exchange column and glyphosate analyzed as described above. The pellet was washed twice with 1 ml 10 mM HEPES, pH 7.0, and resuspended in 25 μl buffer. The cells were lysed with 25 μl quench and the debris pelleted in a microfuge. The pellet extract was then analyzed for glyphosate product as described above. Glyphosate was found in the pellet extracts of these three bacteria indicating the presence of a phosphonate monoester hydrolase activity in these organisms.

[2] = tested on: T10; assay: as above; type: cell-based; conditions: strain T10; 0.2 mM in DF minimal medium
Procedure: as §1, §2

[3] = tested on: LBAA; assay: as above; type: cell-based; conditions: strain LBAA; 0.2 mM in DF minimal medium
Procedure: as §1, §2

[4] = tested on: CP4; assay: as above; type: cell-based; conditions: strain CP4; 0.2 mM in DF minimal medium
Procedure: as §1, §2

[5] = tested on: T12; assay: as above; type: cell-based; conditions: strain T12; 0.2 mM in DF minimal medium
Procedure: as §1, §2

[6] = Translocation of radiolabelled compound applied to tomato leaves; type: in vivo; conditions: tissues analysed after two days
Procedure: The critical tests for a prophytotoxin to be used in negative selection, cell ablation and as a gametocide are that the compound is non-phytotoxic per se but can be hydrolyzed into a phytotoxin by the phosphonate monoester hydrolase protein. The most general and specific method to determine if a protoxin is hydrolyzed to a toxic form of glyphosate is a HPLC assay. The compounds are dissolved at 100 mM concentration in a suitable buffer such as 10 mM TAPS, (N-Tris(hydroxymethyl)methyl-2-aminopropane sulfonic acid) pH 9.0. Triplicate samples (0.1 ml) of the compound are then diluted with 0.9 ml of 10 mM TAPS, pH 9.0 and with 0.9 ml 10 mM TAPS, pH 9.0 plus one unit (1 μmol/min) of enzyme. After 24 hour incubation at 25° C., the samples are injected onto a HPLC column for glyphosate analysis. […] The protoxin and glyphosate are separated on an anion exchange column. the glyphosate is oxidized as it elutes in the presence of bleach and is then derivatized by o-pthaldehyde to a fluorescent derivative which can be quantitatively measured by a fluorescence monitor. […] After two days, the plant is dissected into individual tissues and the amount of protoxin in each tissue determined. […] The tissue samples were then combusted and the amount of radiolabelled compound in each tissue determined by scintillation counting.

O=C(O)CNCP(=O)(O)OCC(O)CO (stereo not drawn) [glyceryl glyphosate, glycine, N-([hydroxy (2,3 dihydroxy propoxy)phosphonyl]methyl)]
Glyceryl Glyphosate as Phosphate Source [1]: No
Glyceryl Glyphosate as Phosphate Source [2]: Yes
Glyceryl Glyphosate as Phosphate Source [3]: Yes
Glyceryl Glyphosate as Phosphate Source [4]: No
Glyceryl Glyphosate as Phosphate Source [5]: No
Translocation to developing anthers [6]: translocates to developing anthers
